Measured values reported in patent US20070225255A1, “Use of Mitochondrially Targeted Antioxidant in the Treatment of Liver Diseases and Epithelial Cancers” (priority 2004, published 2007).

What was measured:
DDC intoxicated mice [1] = experiment: Serum parameters of liver damage in DDC intoxicated mice; format: in vivo, mouse; settings: DDC 3 days, simultaneous MitoQ 3, 6 and 12 mg/kg
Experimental: In serum from various animal groups the activity of serum liver enzymes indicating liver damage, namely bilirubin, alanine aminotransferase (ALT/GPT; in diagram represented by white bars), aspartate aminotransferase (ASAT/GOT in diagram represented by black bars) are determined according to standard protocols in clinical diagnostics by employing commercially available kits (No: 11552414; 11876805216; 11876848216 all purchased by Roche AG, Switzerland) on a Hitachi/Roche 917 Analyser.
In serum from various tested animal groups following parameters indicating liver damage, namely bilirubin, alanine aminotransferase (ALT/GPT), aspartate aminotransferase (ASAT/GOT) and glutamate dehydrogenase (GLDH) are determined according to standard protocols in clinical diagnostics employing commercially available kits (No: 11552414; 11876805216; 11876848216; 11929992 all purchased by Roche AG, Switzerland) on a Hitachi/Roche 917 Analyser.

[2] = test system: human cell lines intoxicated with DDC or BSO; experiment: ROS formation in cell lines intoxicated with DDC or BSO; format: cell-based; settings: simultaneous treatment at concentrations corresponding to EC50
Excerpt: Another simple set of experiments employing hepatoma cell lines (e.g. HepG2 or Hep3B), the SNU-398 hepatocellular carcinoma-derived cell line (ATCC No. CRL-2233, LGC Promochem, Germany), the HUH-7 human carcinoma-derived cell line (Japanese collection of Research Biosources JCRB 0403) or the Tib-73 mouse embryonic liver cell line (ATCC TIB 73=BNL CL2 derived from BAL/c mouse, MD, USA) allows measurement of ROS production in these cells upon DDC intoxication.
To determine ROS production in for example hepatoma cell lines a standard experimental protocol according to Example 8 is applied. Tested hepatoma cells are grown in 96-well plates in culture medium (DMEM supplemented with 10% FCS, Gibco) to 80% confluency, subsequently washed with HBSS and incubated in the dark with DHE (10-50 μM) for 10 minutes at 37° C. Cells are then washed twice with Hank's balanced salt solution (HBSS, Gibco) to remove excess dye. Fluorescence is monitored in a fluorescence microscope (Olympus, Hamburg, Germany).
Alternatively, the generation of ROS is measured by using the fluoroprobe 5-(and-6)-chloromethyl-2′,7′-dichlorodihydrofluorescein diacetate acetyl ester (CM-H2DCFDA, Molecular Probes, Goettingen, Germany) which is converted to fluorescent dichlorofluorescien (DCF; Djordjevic T. et al., 2004, Antioxidants & Redox Signaling, 6: 713-720). To determine DCF fluorescence in a microplate reader (Tecan, Crailsheim, Germany), cells (e.g. HepG2, Hep3B or SNU-398) are grown in 96-well plates to 80% confluency. […] After several washes with HBSS to remove excess dye, fluorescence is monitored by using 480 nm excitation and 540 nm emission wavelength. DCF fluorescence is standardized to the number of viable cells using the Alamar Blue test according to the manufacturer's instructions (Biosource, Nivelles, Belgium). […] The absorbance is then measured at the wavelength of 580 μm.

[3] = test system: human epithelial cell cancer xenografts; experiment: Nude mice tumor xenografts; format: in vivo, mouse
Experimental: Tumor cell lines or primary tumors that are xenografted subcutaneously according to standard methods (Li K. et al., 2003, Cancer Res., 63(13): 3593-3597) include colon adenocarcinomas, invasive ductal carcinomas of the breast, small and non-small cell lung carcinoma, prostate tumors, pancreatic tumors and stomach tumors.
Tumor-derived cell lines (grown in DMEM/10% FBS) are harvested in log-phase growth, washed twice with PBS, resuspended in 1 ml PBS (2.5×10^7 cells/ml), and injected subcutaneously into the right flank of a nude mouse (Hsd: athymic nu/nu, Harlan Winkelmann; aged between 5 and 6 weeks) at 5×10^6 cells/mouse (0.2 ml). Tumor growth is monitored every other day for the indicated periods (depending on the cell type). Tumor size is determined by the product of two perpendicular diameters and the height above the skin surface.

[4] = fed in drinking water for 3 to 7 days, 500 μM or 1 mM (MitoVit E 500 μM); cited from earlier work
[5] = test system: DDC- or GF intoxicated mice; experiment: Toxic memory effect upon reintoxication with DDC or GF after recovery; format: in vivo, mouse; settings: 10 weeks DDC or GF, 4 weeks recovery, reexposure 24 to 72 hours with simultaneous treatment
Excerpt: Mouse livers respond to DDC- or GF intoxication first with ballooning of hepatocytes and formation of a denser keratin IF network. After around 6 weeks of intoxication, ballooned hepatocytes show a reduced density of the keratin IF and early MBs can be observed as fine granules associated with the keratin IF network. Continuation of intoxication leads to the appearance of large MBs typically located in the perinuclear cytoplasmic region. […] Upon cessation of intoxication, MBs disappear within several weeks. At 4 weeks of recovery from intoxication, there are groups of hepatocytes devoid of cytoplasmic keratin filaments but still containing small remnants of MBs at the cell periphery in association with desmosomes. If such mice are reexposed to DDC or GF numerous MBs reappear within 24 to 72 hours (Stumptner C. et al., 2001, J. Hepatol., 34: 665-675). This enhanced formation of MBs upon reintoxication was interpreted—in analogy to allergic reactions—as a toxic memory effect.
In another set of experiments, 10 week-intoxication of mice with DDC or GF is followed by 4 weeks of recovery.

[6] = test system: mitochondria within isolated cells; settings: in vitro; cited from earlier work
DDC intoxicated mice [7] = experiment: Short term (3 days) DDC intoxication, liver histology (H&E); settings: DDC 3 days
Experimental: Liver samples prepared according to Example 1 are used for simple histologic staining such as with haematoxylin and eosin (Luna L. G., 1968, Manual of Histologic staining methods of the Armed Forces Institute of Pathology, 3rd edition. McGraw Hill, New York). Furthermore, single-label immunohistochemistry or double-label immunoflourescence microscopy is performed to detect MBs in tested animals.
In another set of experiments 3 to 12 mg/kg of MitoQ dissolved in 1% of DMSO in PBS is given intraperitoneally simultaneously to DDC intoxicated mice for 3 days and compared to control animals (positive control group represents DDC intoxicated mice whereas negative control represents non DDC intoxicated but vehicle injected animals).

DDC intoxicated mice [8] = experiment: Long term (10 weeks) DDC intoxication, liver histology (cell ballooning, Mallory bodies); settings: then 1 week without DDC with two injections of MitoQ
Experimental: Furthermore, single-label immunohistochemistry or double-label immunoflourescence microscopy is performed to detect MBs in tested animals.
In long term experiments by using mice intoxicated with DDC (for 8-10 weeks) the presence (or absence) of cell ballooning and/or Mallory bodies (MBs) in liver samples of treated animals is determined and compared to the control groups of animals.
In another set of experiments, after 10 weeks of DDC intoxication tested animals receive i.p. injections of MitoQ (1.25 mg/kg) twice within subsequent 7 days (day 1 and day 4 of the corresponding week), and are analysed by routine histology (standard haematoxylin/eosin staining according to Luna L. G., 1968, Manual of Histologic staining methods of the Armed Forces Institute of Pathology, 3rd edition. McGraw Hill, New York).

MitoQ
alanine aminotransferase (ALT/GPT) serum activity (DDC intoxicated mice [1]): most prominent reduction | aspartate aminotransferase (AST/GOT) serum activity (DDC intoxicated mice [1]): reduction of enzymatic activity | bilirubin in serum (DDC intoxicated mice [1]; data not shown): remains without any changes | ROS formation [2]: significant reduction in ROS formation | growth of tumors [3]: reduced growth of tumors | necrosis of the tumors [3]: increased necrosis of the tumors | vascularization of the tumor xenografts [3]: decreased vascularization | gross signs of toxicity [4]: without any gross signs of toxicity | toxic memory effect (reappearance of MBs) [5]: reduced or abolished | accumulation by mitochondria [6]: rapidly and selectively accumulated by mitochondria | inflammatory cells around the portal vein (DDC intoxicated mice [7]; simultaneous MitoQ 6 mg/kg): Absence of inflammatory cells | morphology of the hepatocytes (size and morphology of nuclei, structure of cytoplasm) (DDC intoxicated mice [7]; simultaneous MitoQ 6 mg/kg): normal | liver architecture (strands of hepatocytes bordered by sinusoids) (DDC intoxicated mice [7]; simultaneous MitoQ in PBS/1% DMSO, 6 mg/kg): normal architecture again is visible | accumulation of protoporphyrin in bile ducts (DDC intoxicated mice [8]): markedly reduced
